In ChEMBL document CHEMBL4229333, “Effects of rigidity on the selectivity of protein kinase inhibitors” (Eur J Med Chem, 2018) one finds IC50 and inhibition data, which are given here for six compounds.

Assay [1] concerns the target Serine/threonine-protein kinase B-raf (Homo sapiens, UniProt P15056, V600E). In words: Inhibition of BRAF V600E mutant (unknown origin) after 20 mins by immunoblotting assay.
For assay [2], the target named is T1, Tyrosine-protein kinase ABL1 (Homo sapiens, UniProt P00519). In words: Inhibition of ABL (unknown origin) by phosphocellulose paper disk assay.
T1 sequence (P00519 whole entry): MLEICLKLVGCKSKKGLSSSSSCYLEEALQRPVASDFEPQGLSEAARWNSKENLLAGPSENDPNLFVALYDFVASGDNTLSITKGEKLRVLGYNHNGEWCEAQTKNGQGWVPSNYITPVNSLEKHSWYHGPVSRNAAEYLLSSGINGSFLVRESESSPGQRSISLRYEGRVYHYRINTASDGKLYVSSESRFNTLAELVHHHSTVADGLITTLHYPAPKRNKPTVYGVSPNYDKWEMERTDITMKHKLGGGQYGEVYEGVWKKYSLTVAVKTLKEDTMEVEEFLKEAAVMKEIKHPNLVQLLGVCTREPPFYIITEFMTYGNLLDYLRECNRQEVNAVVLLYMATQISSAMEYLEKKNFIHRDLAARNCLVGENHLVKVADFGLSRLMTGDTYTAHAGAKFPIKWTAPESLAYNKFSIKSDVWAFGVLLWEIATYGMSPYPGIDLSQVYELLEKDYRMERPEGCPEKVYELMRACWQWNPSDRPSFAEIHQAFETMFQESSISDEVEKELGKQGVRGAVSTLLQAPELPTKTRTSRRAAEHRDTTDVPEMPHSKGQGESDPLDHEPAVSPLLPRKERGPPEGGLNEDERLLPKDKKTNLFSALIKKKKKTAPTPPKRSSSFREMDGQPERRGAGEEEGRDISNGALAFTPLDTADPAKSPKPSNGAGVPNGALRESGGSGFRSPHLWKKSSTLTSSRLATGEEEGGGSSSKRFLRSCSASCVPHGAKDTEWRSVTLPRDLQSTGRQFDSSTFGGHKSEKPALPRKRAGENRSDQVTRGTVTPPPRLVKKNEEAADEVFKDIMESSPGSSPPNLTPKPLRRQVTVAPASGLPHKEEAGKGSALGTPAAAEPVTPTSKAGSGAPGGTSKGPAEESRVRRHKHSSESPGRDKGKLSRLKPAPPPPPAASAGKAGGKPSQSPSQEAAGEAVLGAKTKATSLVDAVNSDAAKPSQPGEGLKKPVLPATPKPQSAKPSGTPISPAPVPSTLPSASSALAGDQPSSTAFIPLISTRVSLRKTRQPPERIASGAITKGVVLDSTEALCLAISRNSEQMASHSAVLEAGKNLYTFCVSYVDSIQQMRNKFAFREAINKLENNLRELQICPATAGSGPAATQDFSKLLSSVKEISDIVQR
In assay [3] the target is T1, Tyrosine-protein kinase ABL1. The assay can be described thus: Inhibition of ABL (unknown origin) at 30 nM by phosphocellulose paper disk assay.
The target in assay [4] is Bcr/Abl fusion protein (Homo sapiens, UniProt P00519). The assay can be described thus: Inhibition of BCR-ABL (unknown origin) expressed in mouse BA/F3 cells assessed as reduction in ABL phosphorylation at Y412 residue incubated for 3 hrs by immunoblotting assay. In kind it is cell-based.
Sequence of Bcr/Abl fusion protein (P00519 whole entry, the tested form may be a part): as the sequence (P00519 whole entry) above
Sequence of Bcr/Abl fusion protein (P11274 whole entry, further chain, the tested form may be a part): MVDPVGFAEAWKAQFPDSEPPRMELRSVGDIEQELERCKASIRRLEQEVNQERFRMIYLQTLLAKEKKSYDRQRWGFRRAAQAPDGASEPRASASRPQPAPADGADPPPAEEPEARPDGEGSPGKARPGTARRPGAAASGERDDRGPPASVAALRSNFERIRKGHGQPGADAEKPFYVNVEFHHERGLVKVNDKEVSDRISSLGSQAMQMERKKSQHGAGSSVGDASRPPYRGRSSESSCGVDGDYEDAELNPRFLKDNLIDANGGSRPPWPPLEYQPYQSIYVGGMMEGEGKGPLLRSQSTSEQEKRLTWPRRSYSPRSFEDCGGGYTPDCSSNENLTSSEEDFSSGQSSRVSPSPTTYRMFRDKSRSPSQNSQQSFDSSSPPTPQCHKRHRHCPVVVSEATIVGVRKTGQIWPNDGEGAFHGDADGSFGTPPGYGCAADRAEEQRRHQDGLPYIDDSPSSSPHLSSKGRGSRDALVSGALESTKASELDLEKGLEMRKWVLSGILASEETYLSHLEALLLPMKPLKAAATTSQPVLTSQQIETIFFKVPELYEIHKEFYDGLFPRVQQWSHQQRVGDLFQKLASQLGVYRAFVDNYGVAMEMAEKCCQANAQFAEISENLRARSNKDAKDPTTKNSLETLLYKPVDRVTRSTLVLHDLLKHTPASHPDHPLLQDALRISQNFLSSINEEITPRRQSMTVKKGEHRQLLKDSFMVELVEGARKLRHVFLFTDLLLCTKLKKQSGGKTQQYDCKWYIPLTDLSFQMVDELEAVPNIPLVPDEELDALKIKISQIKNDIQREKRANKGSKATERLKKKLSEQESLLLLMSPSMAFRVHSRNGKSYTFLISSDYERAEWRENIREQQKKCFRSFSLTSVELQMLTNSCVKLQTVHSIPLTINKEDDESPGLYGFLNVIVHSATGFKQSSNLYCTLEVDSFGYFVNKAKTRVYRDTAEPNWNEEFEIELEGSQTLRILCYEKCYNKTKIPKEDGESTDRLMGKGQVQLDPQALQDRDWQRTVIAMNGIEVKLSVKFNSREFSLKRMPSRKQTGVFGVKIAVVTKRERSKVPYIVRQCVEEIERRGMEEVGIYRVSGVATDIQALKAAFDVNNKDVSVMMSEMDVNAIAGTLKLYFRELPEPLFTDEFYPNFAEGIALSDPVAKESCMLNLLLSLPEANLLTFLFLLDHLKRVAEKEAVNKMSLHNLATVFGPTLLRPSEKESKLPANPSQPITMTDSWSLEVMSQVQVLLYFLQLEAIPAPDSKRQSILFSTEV
For assay [5], the system named is Serine/threonine-protein kinase B-raf (Homo sapiens), P15056 [V600E]. In words: Inhibition of BRAF V600E mutant in human A375 cells assessed as decrease in MEK phosphorylation up to 100 uM after 1 hr by immunoblotting assay. It counts as cell-based.
Sequence of Serine/threonine-protein kinase B-raf (Homo sapiens), P15056 [V600E] (P15056 whole entry V600E): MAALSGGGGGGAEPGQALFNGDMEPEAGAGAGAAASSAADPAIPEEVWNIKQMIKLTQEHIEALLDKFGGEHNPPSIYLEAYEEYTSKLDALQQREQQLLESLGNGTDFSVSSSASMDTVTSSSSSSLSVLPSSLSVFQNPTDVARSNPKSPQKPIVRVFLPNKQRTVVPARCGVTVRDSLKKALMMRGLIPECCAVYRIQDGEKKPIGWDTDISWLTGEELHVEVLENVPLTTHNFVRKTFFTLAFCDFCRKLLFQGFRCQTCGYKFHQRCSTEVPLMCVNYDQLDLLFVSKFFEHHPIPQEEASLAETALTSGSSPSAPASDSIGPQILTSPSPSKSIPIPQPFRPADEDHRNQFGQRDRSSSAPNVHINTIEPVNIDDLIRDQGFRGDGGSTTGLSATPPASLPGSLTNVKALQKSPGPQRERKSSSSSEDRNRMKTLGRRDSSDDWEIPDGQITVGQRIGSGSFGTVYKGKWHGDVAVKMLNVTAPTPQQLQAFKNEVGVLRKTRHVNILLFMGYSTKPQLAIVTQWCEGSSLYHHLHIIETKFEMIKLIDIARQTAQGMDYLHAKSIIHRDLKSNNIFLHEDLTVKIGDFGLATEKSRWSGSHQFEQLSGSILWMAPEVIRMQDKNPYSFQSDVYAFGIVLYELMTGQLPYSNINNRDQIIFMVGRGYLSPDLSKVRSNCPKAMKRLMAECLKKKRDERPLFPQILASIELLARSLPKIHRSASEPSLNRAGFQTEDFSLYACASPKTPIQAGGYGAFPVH

Activity calls are given as the source filed them. No cut-off for these calls is given here.

Sequence of Serine/threonine-protein kinase B-raf (P15056 2-766 V600E limits assumed): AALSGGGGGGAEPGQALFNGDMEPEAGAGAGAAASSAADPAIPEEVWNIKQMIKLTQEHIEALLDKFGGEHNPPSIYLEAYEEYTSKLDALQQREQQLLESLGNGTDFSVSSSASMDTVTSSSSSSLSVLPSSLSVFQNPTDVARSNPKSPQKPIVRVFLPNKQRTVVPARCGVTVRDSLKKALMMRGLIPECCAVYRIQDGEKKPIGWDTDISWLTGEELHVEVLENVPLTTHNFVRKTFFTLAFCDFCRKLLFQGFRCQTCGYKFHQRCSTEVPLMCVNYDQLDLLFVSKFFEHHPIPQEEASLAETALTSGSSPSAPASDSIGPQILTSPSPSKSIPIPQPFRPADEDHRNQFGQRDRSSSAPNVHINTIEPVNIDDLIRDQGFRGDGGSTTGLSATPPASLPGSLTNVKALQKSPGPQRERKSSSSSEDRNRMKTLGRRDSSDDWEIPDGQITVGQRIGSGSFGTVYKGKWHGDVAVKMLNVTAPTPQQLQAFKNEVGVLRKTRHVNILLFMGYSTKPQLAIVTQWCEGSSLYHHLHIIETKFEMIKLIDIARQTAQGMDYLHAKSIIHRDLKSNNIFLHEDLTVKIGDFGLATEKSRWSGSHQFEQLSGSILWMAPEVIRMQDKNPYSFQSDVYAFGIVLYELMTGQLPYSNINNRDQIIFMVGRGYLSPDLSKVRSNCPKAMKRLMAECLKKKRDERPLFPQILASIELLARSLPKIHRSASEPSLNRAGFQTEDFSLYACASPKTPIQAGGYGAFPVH

Turning to `Cc1ccc(-c2cc3cccc(C#Cc4nn(C(C)C)c5ncnc(N)c45)c3cn2)cc1`, in assay [1], the IC50 came out at 24 nM.

In assay [1], `CC(C)n1nc(C#Cc2cccc3cc(-c4ccc(Cl)cc4)ncc23)c2c(N)ncnc21` registered an IC50 of 46 nM.

In the case of `CC(C)n1nc(C#Cc2cccc3cc(-c4ccc(Cl)c(C(F)(F)F)c4)ncc23)c2c(N)ncnc21`, the results for the half-maximal inhibitory concentration (IC50) in assay [2] and in assay [1] were 22 nM and 87 nM, respectively. The inhibition result in assay [3] was “inactive”.

Turning to `Cc1ccc2cc(-c3cccc(C(F)(F)F)c3)ncc2c1C#Cc1nn(C(C)C)c2ncnc(N)c12`, the half-inhibitory concentration (IC50) in assay [2] worked out at 10 nM; in assay [1] it was 44 nM. Further, in assay [3], the inhibition entry is “inactive”.

Regarding `CC(C)n1nc(C#Cc2cccc3cc(-c4ccc(CN5CCN(C)CC5)cc4)ncc23)c2c(N)ncnc21`, the IC50 in assay [4] was 211 nM; in assay [2] it was 7 nM; in assay [1], 51 nM. Moreover, the inhibition result in assay [3] was “inactive”.

On to `CCn1nc(C#Cc2cccc3cc(-c4cccc(C(F)(F)F)c4)ncc23)c2c(N)ncnc21`, for which the IC50 in assay [2] worked out at 3.5 nM; in assay [1], 13 nM. Further, the inhibition entry in assay [5] and in assay [3] was “inactive” each time.
